Read-outs that look alike come from different tables or passages of the source. Peptide text beside a SMILES is read from it.
Biological target: T1, HLA A*0101 (Homo sapiens, UniProt P04439, A114D/A174V/A182V/D101N/D185E/E176A/E190D/L180R/Q94H/R68K/S129P/T187R/V100A/V91M/W191G)
T1 construct: Pure Protein, LLC (ran the assay)
Assay: biochemical
Format: binding

[1] = allele A0101, cell-free competition with fluorescently labeled control peptide, fluorescence polarization at 72 hours, read-out: IC50

Compound	IC50 [1]	IC50
CC[C@H](C)[C@H](NC(=O)[C@H](Cc1c[nH]cn1)NC(=O)[C@H](CCCCN)NC(=O)[C@H](CC(=O)O)NC(=O)[C@H](CO)NC(=O)[C@@H]1CCCN1)C(=O)N[C@@H](CCCCN)C(=O)N[C@@H](CCC(=O)O)C(=O)N[C@@H](Cc1ccc(O)cc1)C(=O)O [CL1-62] (H-PSDKHIKEY-OH)	24.8 µM	–
CC(C)[C@H](NC(=O)[C@@H](N)CC(N)=O)C(=O)N[C@@H](CC(=O)O)C(=O)N[C@@H](CCC(=O)O)C(=O)N[C@@H](CC(N)=O)C(=O)N[C@@H](C)C(=O)N[C@@H](CC(N)=O)C(=O)N[C@@H](C)C(=O)N[C@@H](CC(N)=O)C(=O)N[C@@H](CC(N)=O)C(=O)O [Cluster 292_CVX337] (H-NVDENANANN-OH)	667 µM	–
CC[C@H](C)[C@H](NC(=O)[C@H](Cc1c[nH]cn1)NC(=O)[C@H](CCCCN)NC(=O)[C@H](CC(=O)O)NC(=O)[C@H](CO)NC(=O)[C@@H]1CCCN1)C(=O)N[C@H](C(=O)N[C@@H](CCC(=O)O)C(=O)N[C@@H](Cc1ccc(O)cc1)C(=O)O)[C@@H](C)O [Cluster 311_ICS2] (H-PSDKHITEY-OH)	–	2.67 µM
CC[C@H](C)[C@H](NC(=O)[C@H](Cc1c[nH]cn1)NC(=O)[C@H](CCCCN)NC(=O)[C@H](CC(=O)O)NC(=O)[C@H](CO)NC(=O)[C@@H]1CCCN1)C(=O)N[C@@H](CCC(=O)O)C(=O)N[C@@H](CCC(N)=O)C(=O)N[C@@H](Cc1ccc(O)cc1)C(=O)O [Cluster 311_ICS7] (H-PSDKHIEQY-OH)	–	2 µM
CC(C)[C@H](NC(=O)[C@H](CO)NC(=O)[C@H](CS)NC(=O)[C@@H]1CCCN1C(=O)[C@H](CO)NC(=O)[C@H](Cc1c[nH]c2ccccc12)NC(=O)[C@H](CCC(=O)O)NC(=O)[C@@H](NC(=O)[C@@H](N)CO)[C@@H](C)O)C(=O)O [Cluster 328_3D7] (H-STEWSPCSV-OH)	3.18 µM	–
CC(C)C[C@H](NC(=O)[C@H](CCC(N)=O)NC(=O)[C@H](CC(=O)O)NC(=O)[C@H](CCCCN)NC(=O)[C@@H]1CCCN1C(=O)[C@H](CCCCN)NC(=O)[C@H](CC(=O)O)NC(=O)[C@H](C)NC(=O)[C@@H](N)CO)C(=O)N[C@@H](CC(=O)O)C(=O)O [Cluster 350_CVX65] (H-SADKPKDQLD-OH)	8.97 µM	–
CC(C)[C@H](NC(=O)[C@H](CO)NC(=O)[C@H](CO)NC(=O)[C@@H](N)CS)C(=O)N[C@@H](Cc1ccccc1)C(=O)N[C@@H](CC(N)=O)C(=O)N[C@H](C(=O)N[C@H](C(=O)N[C@@H](CC(N)=O)C(=O)O)C(C)C)C(C)C [Cluster 374_3D7] (H-CSSVFNVVN-OH)	82.5 µM	–

From publication PMC8217813, “Bridging Computational Vaccinology and Vaccine Development Through Systematic Identification, Characterization, and Downselection of Conserved and Variable Circumsporozoite Protein CD4 T Cell Epitopes From Diverse Plasmodium falciparum Strains” (Frontiers in Immunology, 2021)
